Laboratory results reported in patent publication US7320984B2, “Remedies or preventives for urinary frequency or urinary incontinence and morphinan derivatives having nitrogen-containing heterocyclic group” (Toray Industries, Inc., priority 2002, dated 2008).

Test system: rhythmic bladder contractions in rats
Test: Inhibitory effect against rhythmic bladder contractions in rats
Assay type: in vivo
Settings: anesthetized female SD rats, intravenous
Method in brief: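 Urethane-anesthetized (1.0 g/kg i.p.) female SD rats; saline infused into bladder to induce rhythmic contractions, intravesical pressure monitored. Compound given i.v. at 1 ml/kg in saline, 10% or 20% aqueous DMSO, or 5% aqueous xylitol. Inhibitory time = period intravesical pressure stayed ≤50% of post-dose level (onset within 10 min); vehicles tested alone.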

Row | Compound | Mean Inhibitory Time of Rhythmic Bladder Contractions (dose 0.1 mg/kg body weight) | further results
1 | C=CCN1CC[C@]23c4c5ccc(O)c4O[C@H]2[C@H](N2Cc4ccc(F)cc4C2=O)CC[C@@]3(O)[C@H]1C5 [Compound 90, 2-(17-allyl-4,5α-epoxy-3,14-dihydroxy-morphinan-6β-yl)-6-fluoro-2,3-dihydro-isoindol-1-one] | 17.6 min | 
2 | CC(=O)O[C@@]12CC[C@@H](N3C(=O)c4ccccc4C3=O)[C@@H]3Oc4c(O)ccc5c4[C@@]31CCN(CC1CC1)[C@@H]2C5 [Compound 91, N-(14-acetoxy-17-cyclopropylmethyl-4,5α-epoxy-3-hydroxymorphinan-6β-yl)-phthalimide] |  | Mean Inhibitory Time of Rhythmic Bladder Contractions (dose 0.03 mg/kg body weight): 14.7 min
3 | C=CCN1CC[C@]23c4c5ccc(O)c4O[C@H]2[C@H](N2C(=O)c4ccccc4C2=O)CC[C@@]3(OC(C)=O)[C@H]1C5 [Compound 92, N-(14-acetoxy-17-allyl-4,5α-epoxy-3-hydroxymorphinan-6β-yl)-phthalimide] | 16.0 min | 
4 | CC(=O)O[C@@]12CC[C@@H](N3CC4=C(CCCC4)C3=O)[C@@H]3Oc4c(O)ccc5c4[C@@]31CCN(CC1CC1)[C@@H]2C5 [Compound 93, N-(14-acetoxy-17-cyclopropylmethyl-4,5α-epoxy-3-hydroxymorphinan-6β-yl)-2,3,4,5,6,7-hexahydro-isoindol-1-one] | 16.0 min | 
5 | CCCN1CC[C@]23c4c5ccc(O)c4O[C@H]2[C@H](N2C(=O)c4ccccc4C2=O)CC[C@@]3(O)[C@H]1C5 [Compound 94, N-(4,5α-epoxy-3,14-dihydroxy-17-propyl-morphinan-6β-yl)-phthalimide] | 11.9 min | 
6 | CN1CC[C@]23c4c5ccc(O)c4O[C@H]2[C@H](N2C(=O)c4ccccc4C2=O)CC[C@H]3[C@H]1C5 [Compound 95, N-(4,5α-epoxy-3-hydroxy-17-methyl-morphinan-6β-yl)-phthalimide] | 15.0 min | 
7 | O=C1c2cccc(O)c2C(=O)N1[C@@H]1CC[C@@]2(O)[C@H]3Cc4ccc(O)c5c4[C@@]2(CCN3CC2CC2)[C@H]1O5 [Compound 96, N-(17-cyclopropylmethyl-4,5α-epoxy-3,14-dihydroxy-morphinan-6β-yl)-3-hydroxy-phthalimide] | 12.9 min | 
8 | Nc1cccc2c1C(=O)N([C@@H]1CC[C@@]3(O)[C@H]4Cc5ccc(O)c6c5[C@@]3(CCN4CC3CC3)[C@H]1O6)C2=O [Compound 97, N-(17-cyclopropylmethyl-4,5α-epoxy-3,14-dihydroxy-morphinan-6β-yl)-3-amino-phthalimide] | 11.2 min | 
9 | Nc1ccc2c(c1)C(=O)N([C@@H]1CC[C@@]3(O)[C@H]4Cc5ccc(O)c6c5[C@@]3(CCN4CC3CC3)[C@H]1O6)C2=O [Compound 98, N-(17-cyclopropylmethyl-4,5α-epoxy-3,14-dihydroxy-morphinan-6β-yl)-4-amino-phthalimide] | 7.2 min | 
10 | C=CCN1CC[C@]23c4c5ccc(O)c4O[C@H]2[C@H](N2C(=O)c4ccc(N)cc4C2=O)CC[C@@]3(O)[C@H]1C5 [Compound 99, N-(17-allyl-4,5α-epoxy-3,14-dihydroxy-morphinan-6β-yl)-4-amino-phthalimide] | 16.9 min | 
11 | C=CCN1CC[C@]23c4c5ccc(O)c4O[C@H]2[C@H](N2C(=O)c4cccc(N)c4C2=O)CC[C@@]3(O)[C@H]1C5 [Compound 100, N-(17-allyl-4,5α-epoxy-3,14-dihydroxy-morphinan-6β-yl)-3-amino-phthalimide] | 14.0 min | 
12 | CCCN1CC[C@]23c4c5ccc(O)c4O[C@H]2[C@H](N2C(=O)c4cccc(N)c4C2=O)CC[C@@]3(O)[C@H]1C5 [Compound 101, N-(4,5α-epoxy-3,14-dihydroxy-17-propyl-morphinan-6β-yl)-3-amino-phthalimide] |  | Mean Inhibitory Time of Rhythmic Bladder Contractions (dose 0.3 mg/kg body weight): 15.1 min
